Results on 5 compounds are retold here after patent US8912186B2, “Allosteric protein kinase modulators” (Universitaet des Saarlandes, priority 2008, dated 2014).

Common to all, as to assay type: biochemical
The target of one test is T1, PKCζ (Homo sapiens, UniProt Q05513).
T1 sequence (Q05513 1-592): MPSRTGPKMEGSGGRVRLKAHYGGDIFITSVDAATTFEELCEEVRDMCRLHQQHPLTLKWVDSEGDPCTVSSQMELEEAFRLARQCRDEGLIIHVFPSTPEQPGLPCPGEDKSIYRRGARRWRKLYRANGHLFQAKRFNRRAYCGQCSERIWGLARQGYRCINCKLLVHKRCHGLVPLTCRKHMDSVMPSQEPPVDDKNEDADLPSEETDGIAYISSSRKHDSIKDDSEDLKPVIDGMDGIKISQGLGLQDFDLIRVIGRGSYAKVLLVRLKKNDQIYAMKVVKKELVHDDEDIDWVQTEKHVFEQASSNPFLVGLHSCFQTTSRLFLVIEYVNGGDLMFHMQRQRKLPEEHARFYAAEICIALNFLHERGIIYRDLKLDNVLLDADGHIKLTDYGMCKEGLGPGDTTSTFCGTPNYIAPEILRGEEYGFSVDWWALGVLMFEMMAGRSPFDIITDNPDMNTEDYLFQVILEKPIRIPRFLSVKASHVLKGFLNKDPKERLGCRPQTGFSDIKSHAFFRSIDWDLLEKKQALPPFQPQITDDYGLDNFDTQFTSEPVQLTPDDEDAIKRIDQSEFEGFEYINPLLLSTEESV
Nature of the test: cell-free kinase activity assay. To be noted: DMSO control set 100%; for remaining activity at 50 µM / remaining activity at 200 µM: read-out: percent of catalytic activity of the Kinase in the presence of compound as compared to the solvent control (DMSO): PKCζ; for remaining activity at 200 µM: 200 μM compound.

In the next test the target is T2, SGK (Homo sapiens, UniProt O00141).
T2 sequence (O00141 1-431): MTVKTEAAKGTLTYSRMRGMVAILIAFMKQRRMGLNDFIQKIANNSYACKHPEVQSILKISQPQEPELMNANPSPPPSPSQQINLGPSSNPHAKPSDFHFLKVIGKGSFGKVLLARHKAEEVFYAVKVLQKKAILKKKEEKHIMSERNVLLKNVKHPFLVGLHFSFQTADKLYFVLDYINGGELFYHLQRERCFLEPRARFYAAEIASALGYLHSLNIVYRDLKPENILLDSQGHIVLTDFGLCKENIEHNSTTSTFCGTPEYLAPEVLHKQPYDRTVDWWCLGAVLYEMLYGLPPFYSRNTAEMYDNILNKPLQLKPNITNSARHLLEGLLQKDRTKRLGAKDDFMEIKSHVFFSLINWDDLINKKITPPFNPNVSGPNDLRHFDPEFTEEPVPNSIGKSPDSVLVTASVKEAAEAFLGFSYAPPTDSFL
Nature of the test: cell-free kinase activity assay. Particulars: DMSO control set 100%; for remaining activity at 200 µM / remaining activity at 50 µM: read-out: percent of catalytic activity of the Kinase in the presence of compound as compared to the solvent control (DMSO): SGK.

Another test concerns the target S6K (Homo sapiens, UniProt P23443). Put plainly: cell-free kinase activity assay. To be noted: DMSO control set 100%; for remaining activity at 50 µM / remaining activity at 200 µM: read-out: percent of catalytic activity of the Kinase in the presence of compound as compared to the solvent control (DMSO): S6K.
A further test deals with PKBβ (Homo sapiens, UniProt P31751). Nature of the test: cell-free kinase activity assay. Particulars: DMSO control set 100%; for remaining activity at 50 µM / percent of catalytic activity of the Kinase in the presence of compound as compared to the solvent control (DMSO): PKBβ: 50 μM compound; for remaining activity at 50 µM / remaining activity at 200 µM: read-out: percent of catalytic activity of the Kinase in the presence of compound as compared to the solvent control (DMSO): PKBβ; for remaining activity at 200 µM: 200 μM compound.
Chain of PKBβ (P31751 whole entry, species assumed): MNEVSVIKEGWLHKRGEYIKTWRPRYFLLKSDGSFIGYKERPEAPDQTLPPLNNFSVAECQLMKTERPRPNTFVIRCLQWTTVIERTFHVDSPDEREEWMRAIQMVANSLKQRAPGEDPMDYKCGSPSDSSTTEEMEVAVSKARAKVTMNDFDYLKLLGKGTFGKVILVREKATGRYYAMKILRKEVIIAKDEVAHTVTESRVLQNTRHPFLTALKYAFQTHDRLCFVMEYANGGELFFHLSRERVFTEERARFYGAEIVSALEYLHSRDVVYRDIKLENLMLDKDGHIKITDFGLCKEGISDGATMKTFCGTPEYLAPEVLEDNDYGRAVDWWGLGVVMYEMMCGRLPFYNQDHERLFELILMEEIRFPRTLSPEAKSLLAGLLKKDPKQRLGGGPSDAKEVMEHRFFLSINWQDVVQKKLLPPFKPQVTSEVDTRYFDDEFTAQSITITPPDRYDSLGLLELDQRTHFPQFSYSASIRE

In a further test the target is PRK2 (Homo sapiens, UniProt Q16513). Nature of the test: cell-free kinase activity assay. Particulars: DMSO control set 100%.
Chain of PRK2 (Q16513 whole entry, species assumed): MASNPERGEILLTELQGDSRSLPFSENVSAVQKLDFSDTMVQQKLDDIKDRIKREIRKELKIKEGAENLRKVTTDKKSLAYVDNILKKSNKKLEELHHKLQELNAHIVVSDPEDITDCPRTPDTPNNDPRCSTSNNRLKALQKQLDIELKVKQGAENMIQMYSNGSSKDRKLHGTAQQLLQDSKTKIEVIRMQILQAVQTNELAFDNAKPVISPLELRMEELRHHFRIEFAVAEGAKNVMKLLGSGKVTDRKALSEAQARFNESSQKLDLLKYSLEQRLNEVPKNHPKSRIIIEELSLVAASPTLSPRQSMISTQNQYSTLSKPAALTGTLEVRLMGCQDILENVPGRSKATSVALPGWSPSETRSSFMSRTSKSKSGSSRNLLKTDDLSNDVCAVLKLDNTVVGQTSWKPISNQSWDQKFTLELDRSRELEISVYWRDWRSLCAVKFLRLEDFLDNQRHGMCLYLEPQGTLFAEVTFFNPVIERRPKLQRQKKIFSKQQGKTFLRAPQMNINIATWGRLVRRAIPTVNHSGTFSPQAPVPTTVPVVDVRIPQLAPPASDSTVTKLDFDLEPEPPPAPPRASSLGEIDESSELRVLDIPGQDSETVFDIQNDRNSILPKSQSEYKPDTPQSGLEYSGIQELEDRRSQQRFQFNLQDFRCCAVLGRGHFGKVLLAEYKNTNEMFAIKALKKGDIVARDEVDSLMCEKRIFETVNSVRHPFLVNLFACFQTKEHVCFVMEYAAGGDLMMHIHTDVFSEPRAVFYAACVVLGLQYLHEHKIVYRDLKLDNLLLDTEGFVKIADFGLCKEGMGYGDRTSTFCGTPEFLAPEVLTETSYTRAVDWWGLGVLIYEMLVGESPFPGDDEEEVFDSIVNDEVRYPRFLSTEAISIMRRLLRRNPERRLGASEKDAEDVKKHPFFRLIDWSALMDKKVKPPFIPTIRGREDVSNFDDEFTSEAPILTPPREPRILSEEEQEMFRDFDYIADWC
For a further test, the target named is T3, PDK1 (Homo sapiens, UniProt O15530).
T3 construct: GST
T3 sequence (O15530 1-556): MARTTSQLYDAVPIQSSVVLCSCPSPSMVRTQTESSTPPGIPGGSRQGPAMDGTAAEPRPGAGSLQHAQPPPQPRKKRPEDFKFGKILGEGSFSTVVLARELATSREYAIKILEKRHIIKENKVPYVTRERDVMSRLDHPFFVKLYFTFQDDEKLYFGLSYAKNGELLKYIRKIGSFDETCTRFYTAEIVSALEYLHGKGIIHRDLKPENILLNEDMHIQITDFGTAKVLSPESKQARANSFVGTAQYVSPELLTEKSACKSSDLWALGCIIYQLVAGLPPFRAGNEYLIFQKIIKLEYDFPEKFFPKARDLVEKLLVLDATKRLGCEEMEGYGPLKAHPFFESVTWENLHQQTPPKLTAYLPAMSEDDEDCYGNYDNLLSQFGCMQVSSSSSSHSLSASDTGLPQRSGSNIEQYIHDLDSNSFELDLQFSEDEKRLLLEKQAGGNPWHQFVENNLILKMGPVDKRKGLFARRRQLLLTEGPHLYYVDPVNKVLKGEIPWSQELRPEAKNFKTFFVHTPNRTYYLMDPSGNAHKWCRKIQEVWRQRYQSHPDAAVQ
Nature of the test: cell-free kinase activity assay (ATPgamma[32P], T308tide substrate). To be noted: for activity at 50 µM: 50 μM compound; for activity at 50 µM / activity at 200 µM: DMSO control set 100%, read-out: percent of catalytic activity of the Kinase in the presence of compound as compared to the solvent control (DMSO): PDK1; for activity at 200 µM: 200 μM compound; for AC50: concentration of the compound required to activate half maximally; for AC50 / max. activation of PDK1 (fold): n.e.: no effect; for max. activation of PDK1 (fold): maximum activation achievable, compared to the basal activity of PDK1. An excerpt: Principle of the cell-free kinase activity assay: In general, the activity of the compounds as protein kinase inhibitors or activators may be assayed in vitro (cell free assay is meant here), in vivo or in a cell line. In vitro assays include assays that determine inhibition or activation of either the phosphorylation activity or ATPase activity of the activated protein kinase. Alternate in vitro assays quantitate the ability of the inhibitor to bind to the protein kinase. Compound binding may be measured by radiolabelling the compound prior to binding, isolating the inhibitor or activator/protein kinase complex and determining the amount of radiolabel bound. Alternatively, inhibitor or activator binding may be determined by running a competition experiment where new compounds are incubated with the protein kinase bound to known radioligands. Newer methods comprise fluorescence polarisation assays and surface plasmon resonance dependent techniques. […] The activity and modulation of activity is measured using a standard ATPgamma[^32P] assay as described earlier. […] The concentration of T308tide is 1 mM and the amount of PDK1 used is 200 ng. Reactions are carried out at room temperature. Reaction is started by addition of ATP-Mg mix and stopped with phosphoric acid after 30 min. Stopped reactions were spotted on to phosphocellulose paper (P81, Whatman) and washed. After drying, the radioactivity associated to the band was quantified.

A further test has as its target PKA (Homo sapiens, UniProt P17612). Nature of the test: cell-free kinase activity assay. To be noted: DMSO control set 100%.

Chain of S6K (P23443 whole entry): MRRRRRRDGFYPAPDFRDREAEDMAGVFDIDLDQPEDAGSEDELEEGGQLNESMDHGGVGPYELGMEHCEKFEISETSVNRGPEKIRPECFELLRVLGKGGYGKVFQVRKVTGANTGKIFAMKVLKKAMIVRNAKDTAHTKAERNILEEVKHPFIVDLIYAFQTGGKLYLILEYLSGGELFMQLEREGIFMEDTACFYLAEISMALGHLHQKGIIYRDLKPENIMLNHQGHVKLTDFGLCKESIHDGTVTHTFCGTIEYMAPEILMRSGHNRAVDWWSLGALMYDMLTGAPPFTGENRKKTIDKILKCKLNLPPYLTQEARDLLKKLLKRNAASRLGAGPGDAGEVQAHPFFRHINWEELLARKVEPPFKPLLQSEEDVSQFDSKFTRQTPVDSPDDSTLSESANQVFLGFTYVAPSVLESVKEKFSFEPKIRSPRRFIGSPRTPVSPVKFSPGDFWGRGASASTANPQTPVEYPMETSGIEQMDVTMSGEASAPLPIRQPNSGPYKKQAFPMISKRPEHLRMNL

With `O=C(O)/C=C(/CCc1cccc(Cl)c1)c1ccccc1` [PS 87, (Z)-5-(3-Chlorophenyl)-3-phenylpent-2-enoic acid], the remaining activity at 50 µM at PKCζ (50 μM compound) was 45%; on S6K (50 μM compound), 90%; on PKBβ it was ~80%. For the same compound, the remaining activity at 200 µM at PKCζ is 3%; at SGK (200 μM compound), 60%; on S6K (200 μM compound), 65%; on PKBβ, ~60%. Further, on SGK (50 μM compound), the “percent of catalytic activity of the Kinase in the presence of compound as compared to the solvent control (DMSO): SGK” value (“percent of catalytic activity … SGK” below) is “no effect”. Also, the “percent of catalytic activity of the Kinase in the presence of compound as compared to the solvent control (DMSO): PRK2” value (“percent of catalytic activity … PRK2” for short) on PRK2 (50 μM compound) and on PRK2 (200 μM compound) was “no effect” in each case. In addition, the activity at 50 µM at PDK1 was 150%. Besides, on PDK1, the activity at 200 µM turned out to be 150%. The activity at PDK1 was half-maximal at 11.6 µM (AC50). Moreover, the “max. activation of PDK1 (fold)” value on PDK1 worked out at 4.1 fold.

On to `O=C(O)/C=C1\c2ccccc2CC1Cc1ccc(Cl)cc1` (stereo not drawn) [PS 102], for which the remaining activity at 50 µM at PKCζ (50 μM compound) was 45%; at SGK (50 μM compound), 112%; on S6K (50 μM compound), 90%; at PKBβ it was 80 to 90%. Also, the remaining activity at 200 µM on PKCζ was 2%; on SGK (200 μM compound), 50%; at S6K (200 μM compound) it was 55%; at PKBβ it was 60 to 70%; at PRK2 (200 μM compound, read-out: percent of catalytic activity of the Kinase in the presence of compound as compared to the solvent control (DMSO): PRK2), 110%. Besides, the “percent of catalytic activity … PRK2” value at PRK2 (50 μM compound) was “no effect”. Further, at PDK1, the activity at 200 µM turned out to be 180%. Further, the AC50 (in general, the concentration giving half of the maximal activity seen) at PDK1 was 30 µM. The “max. activation of PDK1 (fold)” value on PDK1 is 1.8 fold.

Consider `O=C(O)CC(Cc1nc2cc(Cl)ccc2[nH]1)c1ccc(Cl)cc1` (stereo not drawn) [PS 114, 4-(5-Chloro-2-benzimidazolyl)-3-(4-chlorophenyl)butanoic acid], for which the “percent of catalytic activity of the Kinase in the presence of compound as compared to the solvent control (DMSO): PKCζ” value at PKCζ (50 μM compound) is “no effect”. Moreover, the remaining activity at 200 µM at PKCζ came out at 30%; at S6K (200 μM compound) it was 75%; on PKBβ, 80%. Further, the “percent of catalytic activity … SGK” value at SGK (50 μM compound) and at SGK (200 μM compound) was “no effect” in each case. Further, on S6K (50 μM compound), the “percent of catalytic activity of the Kinase in the presence of compound as compared to the solvent control (DMSO): S6K” value (shortened to “percent of catalytic activity … S6K”) is “no effect”. Besides, the remaining activity at 50 µM at PKBβ was found to be 85%. Further, the “percent of catalytic activity … PRK2” value at PRK2 (50 μM compound) and on PRK2 (200 μM compound) was “no effect” each time. Moreover, the “percent of catalytic activity of the Kinase in the presence of compound as compared to the solvent control (DMSO): PKA” value (shortened to “percent of catalytic activity … PKA”) on PKA (50 μM compound) and at PKA (200 μM compound) was “no effect” in each case. The activity at 50 µM at PDK1 stood at 400%. In addition, at PDK1, the activity at 200 µM came out at 500%.

Take `O=C(O)/C=C(\CCc1ccc(Cl)cc1)c1ccccc1F` [PS 145, (E)-5-(4-Chlorophenyl)-3-(2-fluorophenyl)pent-2-enoic acid]: the remaining activity at 50 µM on PKCζ (50 μM compound) is 50%; on SGK (50 μM compound), ~80%. Moreover, the remaining activity at 200 µM at PKCζ is 0%; at SGK (200 μM compound), ~40%; at S6K (200 μM compound) it was ~80%; at PKBβ, ~70%; on PKA (200 μM compound, read-out: percent of catalytic activity of the Kinase in the presence of compound as compared to the solvent control (DMSO): PKA) it was ~60%. Besides, at S6K (50 μM compound), the “percent of catalytic activity … S6K” value is listed as “no effect”. On PKBβ, the “percent of catalytic activity of the Kinase in the presence of compound as compared to the solvent control (DMSO): PKBβ” value is recorded as “no effect”. For the same compound, on PKA (50 μM compound), the “percent of catalytic activity … PKA” value is recorded as “no effect”. Besides, the activity at 200 µM on PDK1 was ~120%.

In the case of `O=C(O)/C=C(/CCc1ccc(Br)cc1)c1ccccc1` [PS-T10, (Z)-5-(4-Bromophenyl)-3-phenylpent-2-enoic acid], the “percent of catalytic activity … SGK” value at SGK (50 μM compound) and at SGK (200 μM compound) was “no effect” in each case. Also, the “percent of catalytic activity … S6K” value on S6K (50 μM compound) and at S6K (200 μM compound) was “no effect” each time. Besides, the “percent of catalytic activity of the Kinase in the presence of compound as compared to the solvent control (DMSO): PKBβ” value at PKBβ is “no effect”. In addition, on PKBβ, the remaining activity at 200 µM is 70 to 80%. Moreover, the “percent of catalytic activity … PRK2” value on PRK2 (50 μM compound) and at PRK2 (200 μM compound) was “no effect” in each case. The “percent of catalytic activity … PKA” value on PKA (50 μM compound) and on PKA (200 μM compound) was “no effect” each time. In addition, the activity at 50 µM at PDK1 came to 400%. At PDK1, the activity at 200 µM stood at 450%. Besides, the activity on PDK1 was half-maximal at 14.5 µM (AC50). Further, the “max. activation of PDK1 (fold)” value at PDK1 was determined as 4.1 fold.
